The text below walks through data of US5661165A, “((4-phenyl-1,2,5-thiadiazol-3-yl)oxy)methyl ester thiocyanic acid compounds, compositions containing them and their use as antimicrobial and marine antifouling agents” (The Dow Chemical Company, priority 1996, dated 1997).

Values after ≈ are worked out from the molar mass of the structure shown. Read-outs that look alike come from different tables or passages of the source.

The test system of assay [1] is Salmonella choleraesuis (Sc). In words: MIC against bacteria (nutrient agar). Type of assay: cell-based, Salmonella choleraesuis ATCC 10708. The settings on record: Salmonella enterica, 30° C., 48 h, read-out: Minimum Inhibitory Concentration, Sc.
Assay [2] deals with Pencillium chrysogenum (Pc). In words: MIC against yeast/fungi (malt yeast agar). In kind it is cell-based, Pencillium chrysogenum ATCC 9480. Particulars: 30° C., fungi read after 72 h, read-out: Minimum Inhibitory Concentration, Pc. The protocol:
(§1) The antimicrobial activity of the compounds of the present invention is set forth as the minimum inhibitory concentration (MIC) for the active compounds and is determined for nine (9) bacteria, using nutrient agar, and seven (7) yeast and fungi, using malt yeast agar. This determination is conducted using a one percent solution of the test compound prepared in a mixture of acetone and water.
(§2) Malt yeast agar is prepared by adding 3 g yeast extract and 45 g malt agar per liter of deionized water. The specific agar is dispensed in 30 mL aliquots into 25×200 mm test tubes, capped and autoclaved for 15 minutes at 115° C.
(§3) The test tubes containing the agar are cooled in a water bath until the temperature of the agar is 48° C. Then, an appropriate amount of the one percent solution of the test compound is added (except in the controls where no compound is added) to the respective test tubes so that the final concentrations are 500, 250, 100, 50, 25, 10, 5, 2.5, 1.0 and zero parts per million of the test compound in the agar, thus having a known concentration of test compound dispersed therein. The contents of the test tubes are then transferred to respective petri plates. After drying for 24 hours, the petri plates containing nutrient agar are inoculated with bacteria and those containing malt yeast agar are inoculated with yeast and fungi.
(§4) The inoculation with the yeast and fungi is accomplished as follows. Cultures of yeast and fungi are incubated for seven days on malt yeast agar at 30° C. These cultures are used to prepare suspensions by the following procedure. A suspension of each organism is prepared by adding 10 mL of sterile saline and 10 microliters of octylphenoxy polyethoxy ethanol to the agar slant of yeast or fungi. The sterile saline/octylphenoxy polyethoxy ethanol solution is then agitated with a sterile swab to suspend the microorganism grown on the slant. Each resulting suspension is diluted into sterile saline (1 part suspension to 9 parts sterile saline). Aliquots of these dilutions are placed in individual wells of Steer's Replicator and petri plates inoculated as previously described. The petri plates are incubated at 30° C. and read after 48 hours for yeast and 72 hours for fungi.
(§5) Table I lists the bacteria, yeast and fungi used in the MIC test described above along with their respective American Type Culture Collection (ATCC) identification numbers.

A further assay has as its system marine organisms. In words: Marine antifouling rating on test panels exposed to the marine environment. The protocol:
Test panels are prepared from clear, rigid polyvinyl chloride film that is 0.381×10^-3 m thick and has one textured surface. The test panels are 0.1524 m by 0.1524 m squares that have 0.00635 m holes punched at corners on 0.127 m centers. A 0.102 square template, with a 0.067 m diameter hole at the center, is attached to the center of the textured surface of the test panels.
The candidate marine antifoulant compound (1.0 g) is stirred into a resinous latex binder (9.0 g). A portion of the compound/binder mixture (1.5 g) is added to the center of the test panel and uniformly spread over the circular area inside the template.
Water is added dropwise as needed to properly spread the compound/binder mixture. The template prevents the compound/binder mixture from spreading beyond the uncovered area. The test panel is allowed to sit for between 10 to 30 minutes until the edge of the spread compound/binder mixture has dried. The template is then removed. The test panel is then allowed to dry for 8 to 12 hours at room temperature.
Two test panels are prepared for each candidate marine antifoulant compound. Two control test panels are also prepared by only treating with the resinous latex binder. One test panel of each candidate marine antifoulant compound is attached over a white background to the topside of an exposure support apparatus. The second test panel is attached over a black background to the underside of the exposure support apparatus. The exposure support apparatus is placed horizontally 0.0254 m under a marine surface with the white background topside facing up. […]
After being removed from the exposure support apparatus, each test panel is inspected and rated for marine organism growth on both the treated and untreated areas of the test panel. The marine organisms present on the treated and untreated areas are noted. The presence of algae spores and bacterial slime are noted but not included in rating each test panel. The test panels are rated on a scale from 10 (representing completely free of marine organism growth) to 0 (representing completely covered with marine organism growth).
In Table IV, the marine antifouling rating values for ((4-phenyl-1,2,5-thiadiazol-3-yl)oxy)methyl ester is set forth, as well as the ratings for control panels (with no marine antifouling compound and referred to as "Control").

Assay [3] deals with Psuedomonas aeruginosa (PRD-10). In words: MIC against bacteria (nutrient agar). Type of assay: cell-based, Psuedomonas aeruginosa ATCC 15442. Particulars: 30° C., 48 h, read-out: Minimum Inhibitory Concentration, PRD.
The subject of the next assay is Fusarium oxysporum (Fo). The assay is described as follows: MIC against yeast/fungi (malt yeast agar). In kind it is cell-based, Fusarium oxysporum ATCC 48112. Particulars: 30° C., fungi read after 72 h, read-out: Minimum Inhibitory Concentration, Fo. The protocol: as §1, §2, §3, §4, §5
Another assay relates to Candida albicans (Ca). The assay is described as follows: MIC against yeast/fungi (malt yeast agar). Type of assay: cell-based, Candida albicans ATCC 10231. The settings on record: 30° C., yeast read after 48 h, read-out: Minimum Inhibitory Concentration, Ca. The protocol:
as §1, §2, §3, §4, §5

Where [4] appears, read: 16 weeks, scale 10 (completely free of growth) to 0 (completely covered), control --.

With `N#CSCOc1nsnc1-c1ccccc1` [Example I, ((4-Phenyl-1,2,5-thiadiazol-3-yl)oxy)methyl ester thiocyanic acid], the MIC was 500 µg/mL (≈ 2010 µM) in assay [1] (pH 6.8, nutrient agar); above 500 µg/mL in assay [1] (pH 8.2, nutrient agar); below 1 µg/mL in assay [2]; above 500 µg/mL in assay [3] (pH 6.8, nutrient agar); above 500 µg/mL in assay [3] (pH 8.2, nutrient agar); 5 µg/mL (≈ 20.1 µM) in the assay on Fusarium oxysporum (Fo). In the assay with Candida albicans (Ca), the MIC turned out to be 2.5 µg/mL (≈ 10 µM). Further, the “Marine Antifouling Rating, Bottom Panel” value is 9 in the assay on marine organisms (6 weeks, scale 10 (completely free of growth) to 0 (completely covered), control 0); 7 with marine organisms (10 weeks, scale 10 (completely free of growth) to 0 (completely covered), control 0); 2 in the assay on marine organisms (setting [4]). For the same compound, the “Marine Antifouling Rating, Top Panel” value in the assay on marine organisms (6 weeks, scale 10 (completely free of marine organism growth) to 0 (completely covered), control 6) is 8; in the assay on marine organisms (10 weeks, scale 10 (completely free of growth) to 0 (completely covered), control 3), 3; with marine organisms (setting [4]) it was 8.
